target: T1, human Histamine H3 receptor (hH3R) (Homo sapiens, UniProt Q9Y5N1); test: GTPγS Binding Assay (antagonist activity, [35S]GTPγS, (R)-α-methyl histamine 30 nM); type: biochemical; conditions: membranes from CHO cells expressing hH3R, 90 minutes at room temperature
T1 construct: expressed in transfected cells; host or cells: CHO cells (Chinese Hamster Ovary); membranes
Method: Guanosine 5′-O-(3-[^35S]thio)triphosphate [GTPγS] Binding Assay
A GTPγS binding assay can be used to investigate antagonist properties of compounds in CHO cells (Chinese Hamster Ovary) transfected with human Histamine H3 receptor (hH3R). Membranes from CHO cells expressing hH3R (10 μg/well) are diluted in GTPγS assay buffer (20 mM Hepes, 10 mM MgCl2, 100 mM NaCl, pH 7.4) and preincubated with saponine (3 μg/ml), GDP (10 μM) and PVT-WGA SPA beads (125 μg/well) (Amersham) for 30 minutes. To determine antagonist activity, (R)-α-methyl histamine (30 nM) is added in 96 well SPA plate with [^35S]GTPγS (0.2 nM) and various concentration of H3R antagonists. The GTPγS binding assay is started with addition of the mixture membrane/saponine/GDP and incubated for 90 minutes at room temperature. The amount of bound [^35S]GTPγS is determined by using the MicroBeta Trilux counter (PerkinElmer). The percentage of [^35S]GTPγS bound in each sample is calculated as a percentage of that bound control sample incubated in absence of H3 antagonist. Duplicate determinations are obtained for each concentration, and the data are analyzed using ExcelFit4 to obtain the IC50.

T1 sequence (Q9Y5N1 whole entry): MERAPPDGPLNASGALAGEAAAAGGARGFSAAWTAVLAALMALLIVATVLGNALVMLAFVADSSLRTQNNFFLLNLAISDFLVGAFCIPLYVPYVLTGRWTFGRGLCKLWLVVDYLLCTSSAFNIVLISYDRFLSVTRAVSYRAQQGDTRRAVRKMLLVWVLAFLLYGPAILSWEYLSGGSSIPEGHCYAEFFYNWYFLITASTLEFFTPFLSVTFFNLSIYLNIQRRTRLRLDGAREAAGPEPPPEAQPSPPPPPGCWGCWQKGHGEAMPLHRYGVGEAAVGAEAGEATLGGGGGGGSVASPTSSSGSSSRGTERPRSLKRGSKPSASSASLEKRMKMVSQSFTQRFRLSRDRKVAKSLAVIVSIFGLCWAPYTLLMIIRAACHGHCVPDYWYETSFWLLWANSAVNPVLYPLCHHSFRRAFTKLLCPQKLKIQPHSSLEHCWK

IC50 [nM] | Compound
48.4 | O=C(c1ccccc1)N1CCC2(CC1)CC(C(=O)N1CCN(C3CCC3)CC1)C2 [Example 30, (7-benzoyl-7-azaspiro[3.5]nonan-2-yl)(4-cyclobutylpiperazin-1-yl)methanone]
24.5 | N#Cc1cccc(C(=O)N2CCC3(CC2)CC(C(=O)N2CCN(C4CCC4)CC2)C3)c1 [Example 31, 3-(2-(4-cyclobutylpiperazine-1-carbonyl)-7-azaspiro[3.5]nonane-7-carbonyl)benzonitrile]
47.7 | O=C(Nc1ccccc1)N1CCC2(CC1)CC(C(=O)N1CCN(C3CCC3)CC1)C2 [Example 32, 2-(4-cyclobutylpiperazine-1-carbonyl)-N-phenyl-7-azaspiro[3.5]nonane-7-carboxamide]
33.9 | CC(C)N1CCN(C(=O)C2CC3(CCN(S(C)(=O)=O)CC3)C2)CC1 [Example 33, (4-isopropylpiperazin-1-yl)(7-(methylsulfonyl)-7-azaspiro[3.5]nonan-2-yl)methanone]
66.4 | Cc1cc(C(=O)N2CCC3(CC2)CC(C(=O)N2CCN(C(C)C)CC2)C3)ccn1 [Example 34, (4-isopropylpiperazin-1-yl)(7-(2-methylisonicotinoyl)-7-azaspiro[3.5]nonan-2-yl)methanone]
61.9 | CC(C)N1CCN(C(=O)C2CC3(CCN(C(=O)c4ccncc4)CC3)C2)CC1 [Example 35, (7-isonicotinoyl-7-azaspiro[3.5]nonan-2-yl)(4-isopropylpiperazin-1-yl)methanone]
67.4 | CC(C)N1CCN(C(=O)C2CC3(CCN(C(=O)c4cccnc4)CC3)C2)CC1 [Example 36, (4-isopropylpiperazin-1-yl)(7-nicotinoyl-7-azaspiro[3.5]nonan-2-yl)methanone]
114 | CC(C)N1CCN(C(=O)C2CC3(CCN(C(=O)N(C)C)CC3)C2)CC1 [Example 37, 2-(4-isopropylpiperazine-1-carbonyl)-N,N-dimethyl-7-azaspiro[3.5]nonane-7-carboxamide]
8.9 | O=C(C1CC2(CCN(S(=O)(=O)c3ccc(F)cc3)CC2)C1)N1CCCN(C2CCC2)CC1 [Example 38, (4-cyclobutyl-1,4-diazepan-1-yl)(7-(4-fluorophenylsulfonyl)-7-azaspiro[3.5]nonan-2-yl)methanone]
9.97 | O=C(C1CC2(CCN(S(=O)(=O)c3cccc(F)c3)CC2)C1)N1CCCN(C2CCC2)CC1 [Example 39, (4-cyclobutyl-1,4-diazepan-1-yl)(7-(3-fluorophenylsulfonyl)-7-azaspiro[3.5]nonan-2-yl)methanone]
6.22 | O=C(C1CC2(CCN(S(=O)(=O)c3ccccc3F)CC2)C1)N1CCCN(C2CCC2)CC1 [Example 40, (4-cyclobutyl-1,4-diazepan-1-yl)(7-(2-fluorophenylsulfonyl)-7-azaspiro[3.5]nonan-2-yl)methanone]
8.71 | O=C(C1CC2(CCN(S(=O)(=O)c3ccccc3)CC2)C1)N1CCCN(C2CCC2)CC1 [Example 41, (4-cyclobutyl-1,4-diazepan-1-yl)(7-(phenylsulfonyl)-7-azaspiro[3.5]nonan-2-yl)methanone]
15 | O=C(c1ccccn1)N1CCC2(CC1)CC(C(=O)N1CCCN(C3CCC3)CC1)C2 [Example 42, (4-cyclobutyl-1,4-diazepan-1-yl)(7-picolinoyl-7-azaspiro[3.5]nonan-2-yl)methanone]
8.87 | Cc1cc(C(=O)N2CCC3(CC2)CC(C(=O)N2CCCN(C4CCC4)CC2)C3)ccn1 [Example 43, (4-cyclobutyl-1,4-diazepan-1-yl)(7-(2-methylisonicotinoyl)-7-azaspiro[3.5]nonan-2-yl)methanone]
8.45 | Cc1cnccc1C(=O)N1CCC2(CC1)CC(C(=O)N1CCCN(C3CCC3)CC1)C2 [Example 44, (4-cyclobutyl-1,4-diazepan-1-yl)(7-(3-methylisonicotinoyl)-7-azaspiro[3.5]nonan-2-yl)methanone]
7.61 | O=C(c1ccncc1)N1CCC2(CC1)CC(C(=O)N1CCCN(C3CCC3)CC1)C2 [Example 45, (4-cyclobutyl-1,4-diazepan-1-yl)(7-isonicotinoyl-7-azaspiro[3.5]nonan-2-yl)methanone]
5.75 | Cc1cncc(C(=O)N2CCC3(CC2)CC(C(=O)N2CCCN(C4CCC4)CC2)C3)c1 [Example 46, (4-cyclobutyl-1,4-diazepan-1-yl)(7-(5-methylnicotinoyl)-7-azaspiro[3.5]nonan-2-yl)methanone]
8.27 | O=C(c1cccnc1)N1CCC2(CC1)CC(C(=O)N1CCCN(C3CCC3)CC1)C2 [Example 47, (4-cyclobutyl-1,4-diazepan-1-yl)(7-nicotinoyl-7-azaspiro[3.5]nonan-2-yl)methanone]
12.7 | O=C(c1ccccc1)N1CCC2(CC1)CC(C(=O)N1CCCN(C3CCC3)CC1)C2 [Example 48, (7-benzoyl-7-azaspiro[3.5]nonan-2-yl)(4-cyclobutyl-1,4-diazepan-1-yl)methanone]
5.28 | N#Cc1ccc(C(=O)N2CCC3(CC2)CC(C(=O)N2CCCN(C4CCC4)CC2)C3)cc1 [Example 49, 4-(2-(4-cyclobutyl-1,4-diazepane-1-carbonyl)-7-azaspiro[3.5]nonane-7-carbonyl)benzonitrile]
7.62 | N#Cc1cccc(C(=O)N2CCC3(CC2)CC(C(=O)N2CCCN(C4CCC4)CC2)C3)c1 [Example 50, 3-(2-(4-cyclobutyl-1,4-diazepane-1-carbonyl)-7-azaspiro[3.5]nonane-7-carbonyl)benzonitrile]
5.02 | N#Cc1ccccc1C(=O)N1CCC2(CC1)CC(C(=O)N1CCCN(C3CCC3)CC1)C2 [Example 51, 2-(2-(4-cyclobutyl-1,4-diazepane-1-carbonyl)-7-azaspiro[3.5]nonane-7-carbonyl)benzonitrile]
56.4 | CC(C)N1CCCN(C(=O)C2CC3(CCN(S(C)(=O)=O)CC3)C2)CC1 [Example 52, (4-isopropyl-1,4-diazepan-1-yl)(7-(methylsulfonyl)-7-azaspiro[3.5]nonan-2-yl)methanone]
160 | Cc1cc(C(=O)N2CCC3(CC2)CC(C(=O)N2CCCN(C(C)C)CC2)C3)ccn1 [Example 53, (4-isopropyl-1,4-diazepan-1-yl)(7-(2-methylisonicotinoyl)-7-azaspiro[3.5]nonan-2-yl)methanone]
161 | CC(C)N1CCCN(C(=O)C2CC3(CCN(C(=O)c4ccncc4)CC3)C2)CC1 [Example 54, (7-isonicotinoyl-7-azaspiro[3.5]nonan-2-yl)(4-isopropyl-1,4-diazepan-1-yl)methanone]
115 | CC(C)N1CCCN(C(=O)C2CC3(CCN(C(=O)c4cccnc4)CC3)C2)CC1 [Example 55, (4-isopropyl-1,4-diazepan-1-yl)(7-nicotinoyl-7-azaspiro[3.5]nonan-2-yl)methanone]
269 | CC(C)N1CCCN(C(=O)C2CC3(CCN(C(=O)N(C)C)CC3)C2)CC1 [Example 56, 2-(4-isopropyl-1,4-diazepane-1-carbonyl)-N,N-dimethyl-7-azaspiro[3.5]nonane-7-carboxamide]
707 | Cc1cc(C(=O)N2CCC3(CC2)CC(C(=O)N2CCN(C4CCC4)CC(C)(C)C2)C3)ccn1 [Example 57, (4-cyclobutyl-6,6-dimethyl-1,4-diazepan-1-yl)(7-(2-methylisonicotinoyl)-7-azaspiro[3.5]nonan-2-yl)methanone]
